# Results: ChEMBL document CHEMBL3390848, “Affinity selection and sequence-activity relationships of HIV-1 membrane fusion inhibitors directed at the drug-resistant variants” (Medchemcomm, 2010)
# Residues, ends and D or L forms follow the SMILES beside them.
# What was measured:
# [1] = system: Human immunodeficiency virus 1; assay: Thermal stability of HIV1 envelope glycoprotein gp41 His-tagged N-terminal heptad repeat N36 N43D mutant-drug complex assessed as thermal unfolding transition state by measuring molar ellipticity at 4 to 90 degC by circular dichroic spectra analysis
# [2] = system: Human immunodeficiency virus 1; assay: Antiviral activity against HIV1 NL4-3 harboring gp41 D36G mutant infected in human HeLa cells expressing CD4-LTR-beta-gal assessed as inhibition of viral replication after 48 hrs by MAGI assay; type: functional, organism-based
# [3] = system: Human immunodeficiency virus 1; assay: Thermal stability of HIV1 envelope glycoprotein gp41 His-tagged N-terminal heptad repeat N36-drug complex assessed as thermal unfolding transition state by measuring molar ellipticity at 4 to 90 degC by circular dichroic spectra analysis
# [4] = system: Envelope glycoprotein gp160 (Human immunodeficiency virus 1), Q72502 [V38A]; assay: Binding affinity to HIV1 His-tagged N-terminal heptad repeat of envelope glycoprotein gp41 assessed as recovery of N36 V38A mutant-drug complex after 2 hrs by LC-MS analysis; design: concentration or dose not given beside the values
# [5] = system: Human immunodeficiency virus 1; assay: Binding affinity to HIV1 His-tagged N-terminal heptad repeat of envelope glycoprotein gp41 assessed as recovery of N36-drug complex after 2 hrs by LC-MS analysis; design: concentration or dose not given beside the values
# [6] = system: Human immunodeficiency virus 1; assay: Binding affinity to HIV1 His-tagged N-terminal heptad repeat of envelope glycoprotein gp41 assessed as recovery of N36-drug complex at 1 uM after 2 hrs by LC-MS analysis
# [7] = system: Human immunodeficiency virus 1; assay: Binding affinity to HIV1 His-tagged N-terminal heptad repeat of envelope glycoprotein gp41 assessed as recovery of N36-drug complex at 10 uM after 2 hrs by LC-MS analysis
# [8] = system: Human immunodeficiency virus 1; assay: Binding affinity to HIV1 His-tagged N-terminal heptad repeat of envelope glycoprotein gp41 assessed as recovery of N36 N43D mutant-drug complex after 2 hrs by LC-MS analysis; design: concentration or dose not given beside the values
# [9] = system: Human immunodeficiency virus 1; assay: Binding affinity to HIV1 His-tagged N-terminal heptad repeat of envelope glycoprotein gp41 assessed as recovery of N36-drug complex at 6 uM after 2 hrs by LC-MS analysis
# [10] = system: Human immunodeficiency virus 1; assay: Binding affinity to HIV1 His-tagged N-terminal heptad repeat of envelope glycoprotein gp41 assessed as recovery of N36-drug complex at 0.6 uM after 2 hrs by LC-MS analysis
# [11] = system: Envelope glycoprotein gp160 (Human immunodeficiency virus 1), Q72502 [V38A]; assay: Thermal stability of HIV1 envelope glycoprotein gp41 His-tagged N-terminal heptad repeat N36 V38A mutant-drug complex assessed as thermal unfolding transition state by measuring molar ellipticity at 4 to 90 degC by circular dichroic spectra analysis
smiles,measurement,setting,value
CC[C@H](C)[C@H](NC(=O)[C@H](CC(C)C)NC(=O)[C@H](CCC(=O)O)NC(=O)[C@H](CCC(=O)O)NC(=O)[C@@H](NC(=O)[C@H](CCCCN)NC(=O)[C@H](CCCCN)NC(=O)[C@@H](NC(=O)[C@H](Cc1ccc(O)cc1)NC(=O)[C@H](CCC(=O)O)NC(=O)[C@H](CCC(=O)O)NC(=O)[C@@H](NC(=O)[C@H](CCCCN)NC(=O)[C@H](CCCCN)NC(=O)[C@H](CC(=O)O)NC(=O)[C@H](Cc1c[nH]c2ccccc12)NC(=O)[C@H](CCC(=O)O)NC(=O)[C@H](CCC(=O)O)NC(=O)[C@H](Cc1c[nH]c2ccccc12)NC(C)=O)[C@@H](C)CC)[C@@H](C)O)[C@@H](C)CC)C(=O)N[C@@H](CCCCN)C(=O)N[C@@H](CCCCN)C(=O)N[C@@H](CO)C(=O)N[C@@H](CCC(=O)O)C(=O)N[C@@H](CCC(=O)O)C(=O)N[C@@H](CCC(N)=O)C(=O)N[C@@H](CCC(N)=O)C(=O)N[C@@H](CCCCN)C(=O)N[C@@H](CCCCN)C(=O)N[C@@H](CC(N)=O)C(=O)N[C@@H](CCC(=O)O)C(=O)N[C@@H](CCC(=O)O)C(=O)N[C@@H](CCC(=O)O)C(=O)N[C@@H](CC(C)C)C(=O)N[C@@H](CCCCN)C(=O)N[C@@H](CCCCN)C(N)=O (Ac-WEEWDKKIEEYTKKIEELIKKSEEQQKKNEEELKK-NH2),Tm,[1],69.9 °C
same,EC50,[2],1 nM
same,Tm,[3],81.6 °C
same,Activity,[4],11.8%
same,Activity,[5],10.1%
same,Activity,[6],11.5%
same,Activity,[7],22.8%
same,Activity,[8],10.9%
same,Activity,[9],19.2%
same,Activity,[10],5.8%
same,Tm,[11],72.6 °C
CC[C@H](C)[C@H](NC(=O)[C@H](CC(C)C)NC(=O)[C@H](CCC(=O)O)NC(=O)[C@H](CCC(=O)O)NC(=O)[C@@H](NC(=O)[C@H](CCCCN)NC(=O)[C@H](CCCCN)NC(=O)[C@@H](NC(=O)[C@H](Cc1ccc(O)cc1)NC(=O)[C@H](CCC(=O)O)NC(=O)[C@H](CCC(=O)O)NC(=O)[C@@H](NC(=O)[C@H](CCCCN)NC(=O)[C@H](CCCCN)NC(=O)[C@H](CC(=O)O)NC(=O)[C@H](Cc1c[nH]c2ccccc12)NC(=O)[C@H](CCC(=O)O)NC(=O)[C@H](CCC(=O)O)NC(=O)[C@H](Cc1c[nH]c2ccccc12)NC(C)=O)[C@@H](C)CC)[C@@H](C)O)[C@@H](C)CC)C(=O)N[C@@H](CCCCN)C(=O)N[C@@H](CCCCN)C(=O)N[C@@H](CC(C)C)C(=O)N[C@@H](CCC(=O)O)C(=O)N[C@@H](CCC(=O)O)C(=O)N[C@@H](CCC(N)=O)C(=O)N[C@@H](CCC(N)=O)C(=O)N[C@@H](CCCCN)C(=O)N[C@@H](CCCCN)C(=O)N[C@@H](CC(N)=O)C(=O)N[C@@H](CCC(=O)O)C(=O)N[C@@H](CCC(=O)O)C(=O)N[C@@H](CCC(=O)O)C(=O)N[C@@H](CC(C)C)C(=O)N[C@@H](CCCCN)C(=O)N[C@@H](CCCCN)C(N)=O (Ac-WEEWDKKIEEYTKKIEELIKKLEEQQKKNEEELKK-NH2),Tm,[1],80 °C
same,EC50,[2],0.2 nM
same,Tm,[3],83.2 °C
same,Activity,[4],10.3%
same,Activity,[6],11.3%
same,Activity,[7],4.7%
same,Activity,[8],12.9%
same,Activity,[9],7.6%
same,Activity,[10],6.9%
same,Tm,[11],75 °C
CC[C@H](C)[C@H](NC(=O)[C@H](CC(C)C)NC(=O)[C@H](CCC(=O)O)NC(=O)[C@H](CCC(=O)O)NC(=O)[C@@H](NC(=O)[C@H](CCCCN)NC(=O)[C@H](CCCCN)NC(=O)[C@@H](NC(=O)[C@H](Cc1ccc(O)cc1)NC(=O)[C@H](CCC(=O)O)NC(=O)[C@H](CCC(=O)O)NC(=O)[C@@H](NC(=O)[C@H](CCCCN)NC(=O)[C@H](CCCCN)NC(=O)[C@H](CC(=O)O)NC(=O)[C@H](Cc1c[nH]c2ccccc12)NC(=O)[C@H](CCC(=O)O)NC(=O)[C@H](CCC(=O)O)NC(=O)[C@H](Cc1c[nH]c2ccccc12)NC(C)=O)[C@@H](C)CC)[C@@H](C)O)[C@@H](C)CC)C(=O)N[C@@H](CCCCN)C(=O)N[C@@H](CCCCN)C(=O)N[C@@H](Cc1c[nH]c2ccccc12)C(=O)N[C@@H](CCC(=O)O)C(=O)N[C@@H](CCC(=O)O)C(=O)N[C@@H](CCC(N)=O)C(=O)N[C@@H](CCC(N)=O)C(=O)N[C@@H](CCCCN)C(=O)N[C@@H](CCCCN)C(=O)N[C@@H](CC(N)=O)C(=O)N[C@@H](CCC(=O)O)C(=O)N[C@@H](CCC(=O)O)C(=O)N[C@@H](CCC(=O)O)C(=O)N[C@@H](CC(C)C)C(=O)N[C@@H](CCCCN)C(=O)N[C@@H](CCCCN)C(N)=O (Ac-WEEWDKKIEEYTKKIEELIKKWEEQQKKNEEELKK-NH2),Tm,[1],66 °C
same,EC50,[2],3.1 nM
same,Tm,[3],66.4 °C
same,Activity,[4],1%
same,Activity,[6],0.9%
same,Activity,[7],0.5%
same,Activity,[8],2.4%
same,Activity,[9],0.3%
same,Activity,[10],6.2%
same,Tm,[11],64.6 °C
CC[C@H](C)[C@H](NC(=O)[C@H](CC(C)C)NC(=O)[C@H](CCC(=O)O)NC(=O)[C@H](CCC(=O)O)NC(=O)[C@@H](NC(=O)[C@H](CCCCN)NC(=O)[C@H](CCCCN)NC(=O)[C@@H](NC(=O)[C@H](Cc1ccc(O)cc1)NC(=O)[C@H](CCC(=O)O)NC(=O)[C@H](CCC(=O)O)NC(=O)[C@@H](NC(=O)[C@H](CCCCN)NC(=O)[C@H](CCCCN)NC(=O)[C@H](CC(=O)O)NC(=O)[C@H](Cc1c[nH]c2ccccc12)NC(=O)[C@H](CCC(=O)O)NC(=O)[C@H](CCC(=O)O)NC(=O)[C@H](Cc1c[nH]c2ccccc12)NC(C)=O)[C@@H](C)CC)[C@@H](C)O)[C@@H](C)CC)C(=O)N[C@@H](CCCCN)C(=O)N[C@@H](CCCCN)C(=O)N[C@@H](C)C(=O)N[C@@H](CCC(=O)O)C(=O)N[C@@H](CCC(=O)O)C(=O)N[C@@H](CCC(N)=O)C(=O)N[C@@H](CCC(N)=O)C(=O)N[C@@H](CCCCN)C(=O)N[C@@H](CCCCN)C(=O)N[C@@H](CC(N)=O)C(=O)N[C@@H](CCC(=O)O)C(=O)N[C@@H](CCC(=O)O)C(=O)N[C@@H](CCC(=O)O)C(=O)N[C@@H](CC(C)C)C(=O)N[C@@H](CCCCN)C(=O)N[C@@H](CCCCN)C(N)=O (Ac-WEEWDKKIEEYTKKIEELIKKAEEQQKKNEEELKK-NH2),Tm,[1],74.4 °C
same,EC50,[2],0.2 nM
same,Tm,[3],86.4 °C
same,Activity,[4],11.4%
same,Activity,[6],11.5%
same,Activity,[7],30.7%
same,Activity,[8],12.9%
same,Activity,[9],22.5%
same,Activity,[10],5.3%
same,Tm,[11],76.1 °C
CC[C@H](C)[C@H](NC(=O)[C@H](CCCCN)NC(=O)[C@H](CCCCN)NC(=O)[C@H](CC(=O)O)NC(=O)[C@H](Cc1c[nH]c2ccccc12)NC(=O)[C@H](CCC(=O)O)NC(=O)[C@H](CCC(=O)O)NC(=O)[C@H](Cc1c[nH]c2ccccc12)NC(C)=O)C(=O)N[C@@H](CCC(=O)O)C(=O)N[C@@H](CCC(=O)O)C(=O)N[C@@H](Cc1ccc(O)cc1)C(=O)N[C@H](C(=O)N[C@@H](CCCCN)C(=O)N[C@@H](CCCCN)C(=O)N[C@H](C(=O)N[C@@H](CCC(=O)O)C(=O)N[C@@H](CCC(=O)O)C(=O)N[C@@H](CC(C)C)C(=O)N[C@H](C(=O)N[C@@H](CCCCN)C(=O)N[C@@H](CCCCN)C(=O)N[C@H](C(=O)N[C@@H](CCC(=O)O)C(=O)N[C@@H](CCC(=O)O)C(=O)N[C@@H](CCC(N)=O)C(=O)N[C@@H](CCC(N)=O)C(=O)N[C@@H](CCCCN)C(=O)N[C@@H](CCCCN)C(=O)N[C@@H](CC(N)=O)C(=O)N[C@@H](CCC(=O)O)C(=O)N[C@@H](CCC(=O)O)C(=O)N[C@@H](CCC(=O)O)C(=O)N[C@@H](CC(C)C)C(=O)N[C@@H](CCCCN)C(=O)N[C@@H](CCCCN)C(N)=O)[C@@H](C)O)[C@@H](C)CC)[C@@H](C)CC)[C@@H](C)O (Ac-WEEWDKKIEEYTKKIEELIKKTEEQQKKNEEELKK-NH2),Tm,[1],67.5 °C
same,EC50,[2],0.8 nM
same,Tm,[3],79.7 °C
same,Activity,[4],10.8%
same,Activity,[6],11.7%
same,Activity,[7],9%
same,Activity,[8],9.4%
same,Activity,[9],12.8%
same,Activity,[10],5.7%
same,Tm,[11],70.4 °C
